In assay [1] the target is Integrin alpha-V/beta-3 (Homo sapiens). Put plainly: Evaluated in an functional alpha-v beta-3 antagonism assay, involving adhesion of beta-3-transfected 293 cells to fibrinogen (alpha-v beta-3 293 beta3).
The target of assay [2] is Integrin alpha-5/beta-1 (Homo sapiens, UniProt P05556+P08648). Nature of the assay: Alpha-5 beta-1 antagonism using an ELISA assay. The class given is functional.
For assay [3], the target named is Integrin alpha-V/beta-3 and alpha-IIb/beta 3 (Homo sapiens, UniProt P05106+P06756+P08514). Nature of the assay: Inhibition of platelet aggregation in human platelet-rich plasma alpha IIb beta-3 integrin to assess the selectivity for the alpha-v beta-3 over the GPIIb/IIIa integrin receptor.

Chain of Integrin alpha-5/beta-1 (P05556 21-798 limits assumed): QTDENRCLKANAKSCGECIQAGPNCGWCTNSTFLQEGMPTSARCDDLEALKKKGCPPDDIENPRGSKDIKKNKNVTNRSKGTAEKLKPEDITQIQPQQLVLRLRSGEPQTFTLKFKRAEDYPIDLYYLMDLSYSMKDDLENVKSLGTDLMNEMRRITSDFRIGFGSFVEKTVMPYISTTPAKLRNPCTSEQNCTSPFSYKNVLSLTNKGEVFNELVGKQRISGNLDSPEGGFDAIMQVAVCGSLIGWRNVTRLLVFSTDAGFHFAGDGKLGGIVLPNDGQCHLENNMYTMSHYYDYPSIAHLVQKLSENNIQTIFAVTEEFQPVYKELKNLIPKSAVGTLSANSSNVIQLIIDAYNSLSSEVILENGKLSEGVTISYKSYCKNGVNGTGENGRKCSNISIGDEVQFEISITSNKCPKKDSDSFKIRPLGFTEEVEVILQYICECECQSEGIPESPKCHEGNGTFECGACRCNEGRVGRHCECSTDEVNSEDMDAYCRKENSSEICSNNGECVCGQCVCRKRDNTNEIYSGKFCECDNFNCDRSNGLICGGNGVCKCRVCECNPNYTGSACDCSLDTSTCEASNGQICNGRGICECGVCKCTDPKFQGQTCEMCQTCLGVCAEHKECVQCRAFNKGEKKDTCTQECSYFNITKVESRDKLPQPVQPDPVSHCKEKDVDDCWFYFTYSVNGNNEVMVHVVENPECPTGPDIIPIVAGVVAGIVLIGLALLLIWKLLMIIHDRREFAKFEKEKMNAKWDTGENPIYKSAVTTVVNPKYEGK
Chain of Integrin alpha-5/beta-1 (P08648 42-894 limits assumed): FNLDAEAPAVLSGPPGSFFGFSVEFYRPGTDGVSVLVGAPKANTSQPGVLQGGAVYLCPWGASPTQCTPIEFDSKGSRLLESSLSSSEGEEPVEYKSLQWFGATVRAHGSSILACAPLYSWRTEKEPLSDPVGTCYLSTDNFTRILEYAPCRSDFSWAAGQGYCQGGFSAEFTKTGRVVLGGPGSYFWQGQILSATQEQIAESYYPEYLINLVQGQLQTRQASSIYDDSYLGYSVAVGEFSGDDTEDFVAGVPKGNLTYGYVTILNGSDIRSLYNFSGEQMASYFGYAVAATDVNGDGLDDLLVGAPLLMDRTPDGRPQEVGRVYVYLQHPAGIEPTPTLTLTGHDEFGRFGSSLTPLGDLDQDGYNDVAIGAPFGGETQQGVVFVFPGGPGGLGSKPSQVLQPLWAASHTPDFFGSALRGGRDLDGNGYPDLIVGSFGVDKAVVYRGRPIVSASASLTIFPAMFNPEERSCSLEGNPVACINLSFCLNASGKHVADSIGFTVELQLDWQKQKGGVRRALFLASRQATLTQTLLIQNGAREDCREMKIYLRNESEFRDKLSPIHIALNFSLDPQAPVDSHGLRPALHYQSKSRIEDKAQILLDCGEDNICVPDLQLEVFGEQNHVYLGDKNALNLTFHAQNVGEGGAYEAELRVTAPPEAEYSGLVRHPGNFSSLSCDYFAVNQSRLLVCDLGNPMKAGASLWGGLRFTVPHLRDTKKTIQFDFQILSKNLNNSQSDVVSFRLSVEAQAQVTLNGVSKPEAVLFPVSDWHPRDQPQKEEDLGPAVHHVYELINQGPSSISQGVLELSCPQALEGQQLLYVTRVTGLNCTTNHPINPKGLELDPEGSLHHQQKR
Chain of Integrin alpha-5/beta-1 (P08648 895-1049 limits assumed): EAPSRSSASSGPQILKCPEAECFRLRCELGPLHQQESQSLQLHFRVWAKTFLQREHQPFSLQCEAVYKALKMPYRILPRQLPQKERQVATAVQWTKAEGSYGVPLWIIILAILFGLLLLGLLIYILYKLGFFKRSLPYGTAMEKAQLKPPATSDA

Turning to `CCCCOC(=O)N1C[C@@]2(CC(C(=O)NC[C@H](NS(=O)(=O)c3c(C)cc(C)cc3C)C(=O)O)=NO2)C[C@H]1CNc1ncc[nH]1`, the IC50 (as a rule, the concentration that gives 50% inhibition) in assay [1] turned out to be 130 nM; in assay [2], 14 nM; in assay [3], 11000 nM.
Taken in the same sequence, the figures for `COC(=O)N1C[C@@]2(CC(C(=O)NC[C@H](NS(=O)(=O)c3c(C)cc(C)cc3C)C(=O)O)=NO2)C[C@H]1CNc1ncc[nH]1` were 57 nM, 21 nM and 7300 nM.
In the case of `Cc1cc(C)c(S(=O)(=O)N[C@@H](CNC(=O)C2=NO[C@]3(C2)C[C@@H](CNC2=NCCN2)N(C(=O)OCc2ccccc2)C3)C(=O)O)c(C)c1`, the results for the 50% inhibitory concentration (IC50) in assay [2] and in assay [3] were 13 nM and 7300 nM, respectively.
For the compound `CCCCOC(=O)N1C[C@@]2(CC(C(=O)NC[C@H](NS(=O)(=O)c3c(C)cc(C)cc3C)C(=O)O)=NO2)C[C@H]1CNc1nc2ccccc2[nH]1`, the IC50 in assay [1] is 87 nM; in assay [2] it was 0.39 nM.
Turning to `Cc1cc(C)c(S(=O)(=O)N[C@@H](CNC(=O)C2=NO[C@]3(CN[C@H](CNc4ncc[nH]4)C3)C2)C(=O)O)c(C)c1`, the concentration for half-maximal inhibition (IC50) in assay [1] turned out to be 180 nM; in assay [2], 230 nM; in assay [3] it was 1400 nM.
On the same counts, the results for `Cc1cc(C)c(S(=O)(=O)N[C@@H](CNC(=O)C2=NO[C@]3(C2)C[C@@H](CNc2ccccn2)N(C(=O)OCc2ccccc2)C3)C(=O)O)c(C)c1` are 49 nM, 0.18 nM and more than 100000 nM.
Consider `COC(=O)N1C[C@@]2(CC(C(=O)NC[C@H](NS(=O)(=O)c3c(C)cc(C)cc3C)C(=O)O)=NO2)C[C@H]1CNc1nc2ccccc2[nH]1`, for which the IC50 in assay [1] was 34 nM; in assay [2], 1.4 nM; in assay [3] it was more than 100000 nM.
On to `Cc1cc(C)c(S(=O)(=O)N[C@@H](CNC(=O)C2=NO[C@]3(C2)C[C@@H](CNc2nc4ccccc4[nH]2)N(C(=O)OCc2ccccc2)C3)C(=O)O)c(C)c1`, for which the IC50 in assay [1] is 74 nM; in assay [3] it was more than 100000 nM.
As to `Cc1cc(C)c(S(=O)(=O)N[C@@H](CNC(=O)C2=NO[C@]3(C2)C[C@@H](CNc2ncc[nH]2)N(C(=O)OCc2ccccc2)C3)C(=O)O)c(C)c1`, the values for the IC50 in assay [1], in assay [2] and in assay [3] were 41 nM, 18 nM and 34000 nM, respectively.
`Cc1cc(C)c(S(=O)(=O)N[C@@H](CNC(=O)C2=NO[C@@]3(C2)C[C@@H](CNC2=NCCN2)N(C(=O)OCc2ccccc2)C3)C(=O)O)c(C)c1`: the values for the IC50 in assay [2] and in assay [3] were 1200 nM and 9200 nM, respectively.
For `Cc1cc(C)c(S(=O)(=O)N[C@@H](CNC(=O)C2=NO[C@]3(C2)C[C@@H](CNc2ncc[nH]2)N(C(=O)OCc2cccnc2)C3)C(=O)O)c(C)c1`, the IC50 in assay [1] came out at 32 nM; in assay [2], 39 nM; in assay [3], 5600 nM.

The values are drawn from ChEMBL document CHEMBL1146830, “Synthesis and biological evaluation of nonpeptide integrin antagonists containing spirocyclic scaffolds” (Bioorg Med Chem Lett, 2004).
